The experiment relates to P 815 line. In words: cell proliferation of the P 815 line (tritiated thymidine incorporation). The experiment is classed as cell-based. As to conditions: P 815 cells, 7 hours incubation in RPMI medium with phenol red, tritiated thymidine added after 3 hours, radioactivity associated with the DNA. As to the method:
The biological activity of the derivative of formula I was compared with dipropylenetriamine NONOate (A), melatonin (B) and a dipropylenetriamine NONOate and melatonin (1/2) mixture (C) on the cell preparation of the cell proliferation of the P 815 line.
The cells are incubated with the products in RPMI medium with phenol red for 7 hours. Tritiated thymidine is added after incubating for 3 hours.
The results are shown on the curve in the single appended FIGURE, where the concentration of product (μM) is carried on the abscissa and the radioactivity associated with the DNA (cpm) is carried on the ordinate.

Molecules are shown by their SMILES.

The IC50 is the midpoint of a concentration-inhibition curve. With `COc1ccc2c(c1)c(CCNC(C)=O)cn2N=O` [compound of formula I, N1-nitrosomelatonin], the IC50 (Mus musculus, P815) is 280 µM. Take `NCCCN(CCCN)/[N+]([O-])=N/O` [dipropylenetriamine NONOate (A), dipropylenetriamine NONOate]: the IC50 was determined as 150 µM.
